The values that follow come from US12264159B2, “Functionalized heterocycles as antiviral agents” (Enanta Pharmaceuticals, Inc., priority 2018, dated 2025).

The structures appear in SMILES notation.

Data set [1] in a line: Compound induced cellular toxicity in HepG2 cells, ATPlite 1Step. The format is cell-based. Conditions: human, three days exposure, 50% reduction of total ATP vs no drug controls. As for the experimental part: At day 3, post seeding cells are treated with ATPlite 1Step according to the manufacturer's instructions.
On the technique in general: Cellular ATP, detected with luciferase, serves as a proxy for viable cell number.

In another data set the test system is HBV in 2.2.15 cells. The data set is described as follows: 2.2.15 cells: viral product in cell lysates quantified via quantitative real time PCR. The format is cell-based, hepatitis B virus (HBV). The note with it: Hepatitis B virus, 120 h, day 5 post treatment, 50% reduction of viral product vs no drug controls, readout (qPCR, HBsAg or HBeAg) not specified for the column. The method in brief:
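HBV product was measured at day 5 by lysate qPCR or by supernatant HBsAg/HBeAg ELISA, in 2.2.15 cells seeded at 35,000/well and exposed to 5-fold compound dilution series (0.5% DMSO). EC50 is 50% reduction of viral product relative to untreated controls.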
Background: In qPCR the cycle at which signal appears reflects the starting amount.

In general, CC50 refers to the concentration at which the toxic effect on the cells reaches its halfway point. Low readings indicate greater toxicity to the cells, high ones lower toxicity to the cells. Usually EC50 stands for the concentration that produces a half-maximal response. A high value points to weaker potency. For `CC(C)(C)[C@@H]1Cn2nc(C3CC3)c(-c3cncs3)c2-c2cc(=O)c(C(=O)O)cn21` [Example 163, (R)-6-(tert-butyl)-2-cyclopropyl-10-oxo-1-(thiazol-5-yl)-5,6-dihydro-10H-pyrazolo[1,5-a]pyrido[2,1-c]pyrazine-9-carboxylic acid], the CC50 at 3 days in data set [1] is over 25 µM. Moreover, the EC50 in the data set with HBV in 2.2.15 cells is under 0.1 µM.

`COc1cccc(-c2cc3n(n2)C[C@@H](C(C)(C)C)n2cc(C(=O)O)c(=O)cc2-3)c1OC` [Example 23, (R)-6-(tert-butyl)-2-(2,3-dimethoxyphenyl)-10-oxo-5,6-dihydro-10H-pyrazolo[1,5-a]pyrido[2,2-c]pyrazine-12-carboxylic acid]: the CC50 at 3 days in data set [1] is over 25 µM. Also, in the data set on HBV in 2.2.15 cells, the EC50 lay within 0.2 to 1 µM.

For the compound `CC(C)(C)[C@@H]1Cn2nc(-c3ccccc3OC(F)F)cc2-c2cc(=O)c(C(=O)O)cn21` [Example 68, (R)-6-(tert-butyl)-2-(2-(difluoromethoxy)phenyl)-10-oxo-5,6-dihydro-10H-pyrazolo[1,5-a]pyrido[2,2-c]pyrazine-12-carboxylic acid], the CC50 at 3 days in data set [1] is over 25 µM. In the data set on HBV in 2.2.15 cells, this compound returned a half-maximal effective concentration (EC50) of under 0.1 µM.

Consider `CC(C)[C@@H]1Cn2nc(C3CC3)c(-c3ccc(F)cc3)c2-c2cc(=O)c(C(=O)O)cn21` [Example 133, (R)-2-cyclopropyl-1-(4-fluorophenyl)-6-isopropyl-10-oxo-5,6-dihydro-10H-pyrazolo[1,5-a]pyrido[2,1-c]pyrazine-9-carboxylic acid], for which the CC50 at 3 days in data set [1] is over 25 µM. This compound also gave an EC50 with HBV in 2.2.15 cells of under 0.1 µM.

Take `CC(C)(C)[C@@H]1Cn2ncc(-c3ccc(F)cc3)c2-c2cc(=O)c(C(=O)O)cn21` [Example 101, (R)-6-(tert-butyl)-1-(4-fluorophenyl)-10-oxo-5,6-dihydro-10H-pyrazolo[1,5-a]pyrido[2,1-c]pyrazine-9-carboxylic acid]: in data set [1], the CC50 at 3 days was over 25 µM. The same compound gave an EC50 with HBV in 2.2.15 cells of under 0.1 µM.

`CC(C)(C)[C@@H]1Cn2nc(-c3ccc(F)cc3F)cc2-c2cc(=O)c(C(=O)O)cn21` [Example 8, (R)-6-(tert-butyl)-2-(2,4-difluorophenyl)-10-oxo-5,6-dihydro-10H-pyrazolo[1,5-a]pyrido[2,2-c]pyrazine-12-carboxylic acid]: the CC50 at 3 days in data set [1] is over 25 µM. Further, in the data set on HBV in 2.2.15 cells, the EC50 is under 0.1 µM.

In data set [1], `CC(C)(C)[C@@H]1Cn2nc(-c3cccc(F)c3)cc2-c2cc(=O)c(C(=O)O)cn21` [Example 2, (R)-6-(tert-butyl)-2-(3-fluorophenyl)-10-oxo-5,6-dihydro-10H-pyrazolo[1,5-a]pyrido[2,2-c]pyrazine-12-carboxylic acid] came in with a CC50 at 3 days of over 25 µM. In the data set on HBV in 2.2.15 cells, this compound displayed an EC50 of under 0.1 µM.

In data set [1], `CC(C)(C)[C@@H]1Cn2nc(-c3ccc4c(c3)OCCO4)cc2-c2cc(=O)c(C(=O)O)cn21` [Example 18, (R)-6-(tert-butyl)-2-(2,3-dihydrobenzo[b][1,4]dioxin-6-yl)-10-oxo-5,6-dihydro-10H-pyrazolo[1,5-a]pyrido[2,2-c]pyrazine-12-carboxylic acid] displayed a CC50 at 3 days of over 25 µM. For the same compound, the EC50 in the data set on HBV in 2.2.15 cells was under 0.1 µM.

Consider `CCOc1ccccc1-c1nc2n(n1)C[C@@H](C(C)(C)C)n1cc(C(=O)O)c(=O)cc1-2` [Example 86, (R)-6-(tert-butyl)-2-(2-ethoxyphenyl)-10-oxo-5,6-dihydro-10H-pyrido[1,2-a][1,2,4]triazolo[5,2-c]pyrazine-12-carboxylic acid], for which, in data set [1], the CC50 at 3 days is over 25 µM. This compound also returned an EC50 in the data set on HBV in 2.2.15 cells of under 0.1 µM.

As for `CC(C)(C)[C@@H]1Cn2nc(C3CC3)c(-c3cccs3)c2-c2cc(=O)c(C(=O)O)cn21` [Example 156, (R)-6-(tert-butyl)-2-cyclopropyl-10-oxo-1-(thiophen-2-yl)-5,6-dihydro-10H-pyrazolo[1,5-a]pyrido[2,1-c]pyrazine-9-carboxylic acid], the CC50 at 3 days in data set [1] is over 25 µM. For the same compound, in the data set with HBV in 2.2.15 cells, the EC50 was under 0.1 µM.
